Laboratory results: patent US7326680B1, “Uterine contraction inhibitors” (Shionogi & Co., Ltd., priority 1999, dated 2008)
Bridge positions count the residues as written; N and C are the ends. Ends that are not written are not given here.

Assays:
[1] = system: uterine strips; assay: Stimulation of contraction of uterine strips from rats not treated with estrogen; type: cell-based, rat; details: 1 nM oxytocin, 1 μM PGF2α or 10 nM bradykinin
Procedure: (§1) In another experiment, rats without injection of 17β-estradiol were used. The effect of 100 nM AM on uterine contraction induced by 10 nM bradykinin, 1 nM oxytocin, or 1 μM PGF2α was tested in the presence or absence of 1 μM AM[22-52] or 1 μM CGRP[8-37].

[2] = system: spontaneous myometrial contraction of rat uterine strips; assay: Spontaneous contraction of isolated uterine strips from 17β-estradiol-treated female rats (isotonic transducer); type: cell-based; details: for effect on the contraction inhibitory effect of 1 to 100 nM AM (spontaneous contraction): 1 μM preliminary addition; for effect of the antagonist per se on spontaneous contraction: 1 μM, preliminary addition (15 min preincubation)
Procedure: 1 μg of 17β-estradiol in 0.2 ml of 30% ethanol was subcutaneously injected to 10 to 12 week old female rats.
On the following day, the rats were sacrificed by hammering their heads. Thereafter, the rats were decapitated, followed by exsanguination. The uteri were isolated from the rats. Each isolated uterus was cut into four fragments a to d (FIG. 1(A)). Portions of each strip to which blood vessels were attached were cut off, thereby obtaining uterine strips (FIG. 1(B)).
The effect of AM on the rat uterus was examined by measuring contractions of the uterine strips using an isotonic transducer TD-112S (manufactured by Nippon Kohden Corporation) where the tension was 1 g.
While the uterine strip was immersed in 30 ml of a modified Krebs-Ringer bicarbonate (KRB) solution with glucose) (hereinafter simply referred to as “modified KRB solution”), the uterine strip was attached to the isotonic transducer. The composition of the modified KRB solution is as follows: 122 mM NaCl, 26 mM NaHCO3, 5 mM KCl, 1 mM MgSO4.7H2O, 0.03 mM EDTA-2Na, 2.4 mM CaCl2, and 11 mM glucose; pH 7.4).
(§2) Myometrial contraction was continuously measured. After spontaneous rhythm of the uterine muscle was confirmed to be constant, 30 μl of 10^−4 M AM (experimental sample) or distilled water (control sample) was added to the respective modified KRB solution with glucose, where the concentration of AM was 100 nM. 30 minutes after the addition of AM or distilled water, 300 μl of 4.5 M KCl was added to make a KCl concentration of 45 mM.
In a manner similar to that of Example 1, uterine strips were prepared, and attached to an isotonic transducer in a modified KRB solution. Myometrial contraction was continuously measured. After it was confirmed that the spontaneous rhythm of uterine muscle became constant, 30 μl of 1×10^−6, 2×10^−6, 7×10^−6, 2×10^−5, or 7×10^−5 M AM (experimental samples), or distilled water (control sample) was added to the modified KRB solution at time 0 min (initial addition), 5 min later, 12 min later, 22 min later, and 32 min later, where AM concentrations were 1, 3, 10, 30, and 100 nM, respectively. Thereafter, after 45 minutes from the initial addition of AM or distilled water, 300 μl of 4.5 M KCl was added to the solution to be a KCl concentration of 45 mM.
8 to 12 weeks old female rats were used to prepare uterine strips in a manner similar to that of Example 1.
Thereafter, the uterine strip was placed in a tissue chamber filled with 30 ml of a modified KRB solution with aeration of 95% O2/5% CO2 at 37° C. to measure contraction of the uterine strip in a manner similar to that of Example 1. After 40 minutes of equilibrium, the uterine strip was preincubated for 15 minutes in the presence or absence of 1 μM AM[22-52] or 1 μM CGRP[8-37]. Thereafter, AM was added to the modified KRB solution in the tissue chamber to gradually increase the AM concentration from 1 nM to 100 nM, exposing the uterine strip to AM.

[3] = system: bradykinin-induced contraction of rat uterine strips; assay: Bradykinin-induced contraction of isolated rat uterine strips; type: cell-based; details: 10 nM bradykinin; for effect on the inhibitory effect of AM on bradykinin-induced contraction: preliminary addition of 1 μM antagonist
Procedure: In a manner similar to that of Example 1, uterine strips were prepared and attached to an isotonic transducer in a modified KRB solution. At the time when 10 nM bradykinin (Peptide Institute, Inc.) was added to the modified KRB solution, myometrial contraction was continuously measured. 20 minutes after the addition of bradykinin, 100 nM AM or distilled water was further added.
as §1
(§3) In all measurements, the uterine strips were eventually contracted due to 45 mM KCl depolarization to confirm responses of the myometrium. The results are shown in FIGS. 6(a) to 6(f) and FIGS. 7(a) to 7(e).

[4] = system: galanin-induced tonic contraction of the uterus; details: Reference 7; cited from earlier work
[5] = system: muscle contraction due to activation of voltage-dependent Ca channels (45 mM KCl); assay: 45 mM KCl depolarization-induced contraction of rat uterine strips; type: cell-based; details: 100 nM AM, KCl added 30 min after AM
Procedure: as §2, §3

[6] = system: PGF2α-induced contraction of rat uterine strips; assay: PGF2α-induced contraction of isolated rat uterine strips; type: cell-based; details: 100 nM AM, 1 μM PGF2α, rats not treated with estrogen
Procedure: as §1, with “CGRP[8-37]. In all measurements, the uterine strips were eventually contracted due to 45 mM KCl depolarization to confirm responses of the myometrium. The results are shown in FIGS. 6(a) to 6(f) and FIGS. 7(a) to 7(e).” for “CGRP[8-37].”

[7] = system: oxytocin-induced contraction of rat uterine strips; assay: Oxytocin-induced contraction of isolated rat uterine strips; type: cell-based; details: 100 nM AM, 1 nM oxytocin, rats not treated with estrogen
Procedure: as §1, with “CGRP[8-37]. In all measurements, the uterine strips were eventually contracted due to 45 mM KCl depolarization to confirm responses of the myometrium. The results are shown in FIGS. 6(a) to 6(f) and FIGS. 7(a) to 7(e).” for “CGRP[8-37].”

With CC[C@H](C)[C@@H]1NC(=O)[C@H](Cc2ccc(O)cc2)NC(=O)[C@@H](N)CSSC[C@@H](C(=O)N2CCC[C@H]2C(=O)N[C@@H](CC(C)C)C(=O)NCC(N)=O)NC(=O)[C@H](CC(N)=O)NC(=O)[C@H](CCC(N)=O)NC1=O [oxytocin] the “stimulation of uterine contraction” value [1] was “significantly stimulated contraction”.

For “AM[22-52]: an antagonist for an AM receptor (TVQKLAHQIYQFTDKDKDNVAPRSKISPQGY; ends and bridges not checked; UniProt P35318 116-146, looked up, fragment) [reference compound]”, the “effect on the contraction inhibitory effect of 1 to 100 nM AM (spontaneous contraction)” value [2] was “substantially completely prevents”, the “effect of the antagonist per se on spontaneous contraction” value [2] was “had no effect” and the “effect on the inhibitory effect of AM on bradykinin-induced contraction” value ([3]; 100 nM AM) was “eliminated”.

In the case of “CGRP[8-37]: an antagonist for a CGRP receptor (VTHRLAGLLSRSGGVVKNNFVPTNVGSKAF; ends and bridges not checked; UniProt P06881 90-119, looked up, fragment) [reference compound]”, the “effect on the contraction inhibitory effect of 1 to 100 nM AM (spontaneous contraction)” value [2] is listed as “substantially completely prevents”, the “effect of the antagonist per se on spontaneous contraction” value [2] is listed as “had no effect” and the “effect on the action of AM on galanin-induced tonic contraction” value [4] is listed as “eliminated”. For the same compound, the “effect on the inhibitory effect of AM on bradykinin-induced contraction” value ([3]; 100 nM AM) was “eliminated”.

With “YRQSMNQGSRSTGCRFGTCTMQKLAHQIYQFTDKDKDGMAPRNKISPQGY-NH2 (disulfide 14-19; C-terminus assumed) [AM]” the “effect on contraction caused by 45 mM KCl” value [5] was “does not affect”, the “effect on contraction induced by PGF2α” value [6] was “almost no effect” and the “effect on spontaneous myometrial contraction” value ([2]; 100 nM AM, Example 1, FIGS. 2(c), 2(d)) was “significantly inhibited”. For the same compound, the “effect on spontaneous myometrial contraction, cumulative concentrations” value ([2]; 1, 3, 10, 30, 100 nM AM, Example 2, FIGS. 3(a), 3(b)) was “inhibited by the addition of AM in a concentration-dependent manner”, the IC50 ([2]; AM 1 to 100 nM, estradiol-treated rats, Example 4, read-out: IC50 of inhibition of spontaneous contraction) was 23 nM and the “reversibility of the inhibitory effect on spontaneous contraction” value ([2]; washing out and exchanging the modified KRB solution after 100 nM AM) was “could be reversed”. The “effect on contraction induced by oxytocin” value [7] was “almost no effect”, the “concentration at which galanin-induced tonic contraction of the uterus was inhibited” value [4] was no less than 5 µM and the “effect on bradykinin-induced contraction” value ([3]; 100 nM AM added 20 min later, estradiol-treated rats, Example 3) was “inhibited”. The “effect on bradykinin-induced contraction” value ([3]; 100 nM AM, rats not treated with estrogen, Example 4) was “completely blocked”.

For prostaglandin F2α [PGF2α], the “stimulation of uterine contraction” value [1] was “significantly stimulated contraction”.
